Measurements: patent publication US20260355163A1, “TREATMENT OF FASCIOLOSIS” (INTERVET INC., priority 2022, published 2026)
Entries after “also recorded” stand apart in the source; their conditions may differ. Like-named read-outs stand apart in the source and are kept apart here.

Columns and labels:
[1] = tested on: Fasciola hepatica Newly Excysted Juveniles (NEJs); test: whole organism screen of Fasciola hepatica NEJs: microscopic scoring of phenotype and motility (viability)
Procedure: The effect of test compounds in a whole organism screen of Fasciola hepatica Newly Excysted Juveniles (NEJs) was investigated along with DMSO (− control), triclabendazole (10 μM, + control) and media) and their anti-flukicidal activity was assessed at both 24 and 72 hours.
(§1) The viability detection of Fasciola hepatica NEJs is based on qualitative microscopic evaluation of motility and phenotype and additionally measuring propidium iodide to make use of the differential uptake of fluorophores (such as propidium iodide) by living organisms.
(§2) NEJs were prepared according to Edwards et al.. Approximately 12 NEJs/compound were cultivated. NEJ/compound co-cultures were placed at 37 °C in a humidified atmosphere containing 5% CO2. NEJ/compound co-cultures were incubated for a total of 72 hrs. At 24h, an assessment of the gross phenotype was made for all NEJ/compound co-cultures and bright field images were captured. At 72 h both phenotype and motility were quantified in comparison to live DMSO controls based on a microscopic scoring method detailed in [1] as well as summarised in Table 1 below.

[2] = tested on: common liver fluke (Fasciola hepatica); details: cited from earlier work; for effectiveness against liver fluke stages: mature flukes and immature stages (early immature 1 to 6 weeks old, immature 6 to 9 weeks old)
[3] = tested on: Fasciola hepatica Newly Excysted Juveniles (NEJs); test: Propidium Iodide (PI) uptake by Fasciola hepatica NEJs in co-culture with compound
Procedure: as §1, §2
Propidium Iodide (PI) was then added to the NEJ/compound co-cultures (to a final concentration of […]) and these co-cultures were imaged under both Bright field and Texas Red settings.

[4] = 72 h, in comparison to live DMSO controls, triclabendazole + control at 10 μM, concentration of test compounds not given
[5] = overall conclusion from viability, phenotype/motility and PI

Row | SMILES | Score (mean) motility 1 to 5 (highest) [1, 4] | Score (mean) phenotype 1 to 6 (highest) [1, 4] | active against Fasciola hepatica NEJs during the viability assessment ([1]; after 24 hours) | phenotype change and impaired motility significantly different to DMSO ([1]; after 72 hours) | significant activity against juvenile stages of Fasciola hepatica [1, 5] | effectiveness against liver fluke stages [2] | also measured
1 | C#CCNC(=O)CNC(=O)c1sc(C2=NO[C@@](c3cc(Cl)c(Cl)c(Cl)c3)(C(F)(F)F)C2)c2c1CCCC2 [Compound 7] | 4.8 | 5.7 | active | both a phenotype change and impaired motility significantly different to DMSO | significant activity |  | 
2 | Cc1cc(C2=NSC(c3cc(Cl)cc(Cl)c3)(C(F)(F)F)C2)ccc1C(=O)NCC(=O)NCC(F)(F)F (centres unmarked) [Compound 9] | 5.0 | 5.7 | active | both a phenotype change and impaired motility significantly different to DMSO | significant activity |  | 
3 | N#Cc1cc(I)c(O)c([N+](=O)[O-])c1 [nitroxynil] |  |  |  |  |  | only effective against the mature flukes and not against the immature stages; also recorded: effective against fluke from 8 weeks post infection | 
4 | Cc1cc(C2=NO[C@@](c3cc(Cl)c(Cl)c(Cl)c3)(C(F)(F)F)C2)sc1C(=O)NCC(=O)NCC(F)(F)F (stereo in doubt) [Compound 4, 3-methyl-N-(2-oxo-2-((2,2,2-trifluoroethyl)amino)ethyl)-5-[5-(3,4,5-trichlorophenyl)-5-(trifluoromethyl)-4,5-dihydroisoxazol-3-yl]thiophene-2-carboxamide] |  |  |  |  |  |  | Score (mean) motility 1 to 5 (highest) [1]: 5.0; Score (mean) phenotype 1 to 6 (highest) [1]: 5.7; active against Fasciola hepatica NEJs during the viability assessment [1]: active; phenotype change and impaired motility significantly different to DMSO [1]: both a phenotype change and impaired motility significantly different to DMSO; significant activity against juvenile stages of Fasciola hepatica [1]: significant activity; Propidium Iodide positivity [3]: > 90%
5 | Cc1cc(C2=NOC(c3cc(Cl)cc(Cl)c3)(C(F)(F)F)C2)ccc1C(=O)NCC(=O)NCC(F)(F)F (centres unmarked) [Compound 1, 4-[5-(3,5-dichlorophenyl)-5-trifluoromethyl-4,5-dihydroisoxazol-3-yl]-2-methyl-N-[(2,2,2-trifluoro-ethylcarbamoyl)-methyl]-benzamide] |  |  |  |  |  |  | Score (mean) motility 1 to 5 (highest) [1]: 5.0; Score (mean) phenotype 1 to 6 (highest) [1]: 5.5; active against Fasciola hepatica NEJs during the viability assessment [1]: active; phenotype change and impaired motility significantly different to DMSO [1]: both a phenotype change and impaired motility significantly different to DMSO; significant activity against juvenile stages of Fasciola hepatica [1]: significant activity
6 | C#CCNC(=O)CNC(=O)c1sc(C2=NO[C@@](c3cc(Cl)c(Cl)c(Cl)c3)(C(F)(F)F)C2)cc1C [Compound 6] | 5.0 | 5.6 | active | both a phenotype change and impaired motility significantly different to DMSO | significant activity |  | 
7 | CS(=O)(=O)CC(=O)N1CC2(C1)OCc1cc(C3=NO[C@@](c4cc(Cl)c(F)c(Cl)c4)(C(F)(F)F)C3)ccc12 (stereo in doubt) [Compound 5, 1-(5′-(5-(3,5-dichloro-4-fluorophenyl)-5-(trifluoromethyl)-4,5-dihydroisoxazol-3-yl)-3′H-spiro[azetidine-3,1′-isobenzofuran]-1-yl)-2-(methylsulfonyl)ethan-1-one] | 5.0 | 5.7 | active | both a phenotype change and impaired motility significantly different to DMSO | significant activity |  | 
8 | C#CCNC(=O)CNC(=O)c1sc(C2=NO[C@](c3cc(Cl)c(Cl)c(Cl)c3)(C(F)(F)F)C2)c2c1CCCC2 [Compound 8] | 5.0 | 5.7 | active | both a phenotype change and impaired motility significantly different to DMSO | significant activity |  | 
9 | Nc1cc(C(Cl)=C(Cl)Cl)c(S(N)(=O)=O)cc1S(N)(=O)=O [clorsulon] |  |  |  |  |  | effective only against mature flukes | 
10 | CCCSc1ccc2nc(NC(=O)OC)[nH]c2c1 [albendazole] |  |  |  |  |  | only effective against the mature flukes and not against the immature stages; also recorded: effective only against mature flukes | 
11 | O=C(Nc1cc(Cl)cc(Cl)c1O)c1c(O)c(Cl)cc(Cl)c1Cl [oxyclozanide] |  |  |  |  |  | only effective against the mature flukes and not against the immature stages; also recorded: effective only against mature flukes | 
12 | Cn1nc(C(F)(F)C(F)(F)F)c(C(F)(F)F)c1-n1cc(-c2ccc(Cl)c(C(=O)NC3(C#N)CC3)c2)cn1 [Compound 10, 2-chloro-N-(1-cyanocyclopropyl)-5-[1-[2-methyl-5-(1,1,2,2,2-pentafluoroethyl)-4-(trifluoromethyl)pyrazol-3-yl]pyrazol-4-yl]benzamide] | 4.8 | 3.8 | active | both a phenotype change and impaired motility significantly different to DMSO |  |  | 
13 | O=C(CNC(=O)c1ccc(C2=NOC(c3cc(Cl)cc(C(F)(F)F)c3)(C(F)(F)F)C2)c2ccccc12)NCC(F)(F)F (centres unmarked) [Compound 3, 4-[5-[3-chloro-5-(trifluoromethyl)phenyl]-4,5-dihydro-5-(trifluoromethyl)-3-isoxazolyl]-N-[2-oxo-2-[(2,2,2-trifluoroethyl)amino]ethyl]-1-naphthalene-carboxamide] | 5.0 | 5.7 | active | both a phenotype change and impaired motility significantly different to DMSO | significant activity |  | 
14 | CSc1nc2cc(Cl)c(Oc3cccc(Cl)c3Cl)cc2[nH]1 [Triclabendazole] | 5.0 | 5.8 |  |  |  | effective against mature stages of the common liver fluke (Fasciola hepatica) as well as all immature stages | effectiveness against early immature liver fluke larvae ([2]; early immature larvae (1 to 6 weeks old)): effective against all early immature liver fluke larvae
15 | Cc1cc(C(C#N)c2ccc(Cl)cc2)c(Cl)cc1NC(=O)c1cc(I)cc(I)c1O (centres unmarked) [closantel] |  |  |  |  |  | only effective against the mature flukes and not against the immature stages | effectiveness against 3-8 weeks old flukes ([2]; 3-8 weeks old flukes): partially effective; effectiveness against mature flukes ([2]; mature flukes): fully effective
16 | Cc1cc(C2=NO[C@@](c3cc(Cl)cc(Cl)c3)(C(F)(F)F)C2)ccc1C(=O)NCC(=O)NCC(F)(F)F [Compound 2] |  |  |  |  |  |  | Score (mean) motility 1 to 5 (highest) [1]: 5.0; Score (mean) phenotype 1 to 6 (highest) [1]: 5.8; active against Fasciola hepatica NEJs during the viability assessment [1]: active; phenotype change and impaired motility significantly different to DMSO [1]: both a phenotype change and impaired motility significantly different to DMSO; significant activity against juvenile stages of Fasciola hepatica [1]: significant activity; Propidium Iodide positivity [3]: > 90%
